From US20080188421A1, “Hunter-Killer Peptides and Methods of Use” (priority 2004, published 2008)

Legend:
Kaposi's sarcoma cells [1] = assay: Viability of KS cells (Live/Dead assay); type: cell-based; conditions: KS cells treated with peptides at 12 ug/mL in DMEM without serum
Method: (§1) KS cells were plated in DMEM with 10% FBS in 96-well plates. Media was replaced with 100 uL of DMEM without serum and cells were treated with peptides at 12 ug/mL: The peptides utilized had two distinct disulfide links and are shown below. The other peptides utilized in the studies and methods for tumor studies are essentially as reported in Nature Medicine 5(9): 1032-1038, 1999, which is incorporated herein by reference in its entirety. Crude peptide was unpurified peptide composed monomer and dimer and other species-oxidized forms of the peptide.

Kaposi's sarcoma cells [2] = assay: Mitochondrial function in KS cells (WST-1 assay); type: cell-based; conditions: KS cells treated with peptides at 12 ug/mL; for mitochondrial function (remaining) in treated KS cell culture: function reduced to
Method: as §1
In order to determine the decrease in mitochondrial function in tumor cells targeted with HK-1, which has the structure (CNGRC-GG-d(KLAKLAK)2)2 (SEQ ID NO: 9), Kaposi's sarcoma cells were treated with HK-1, with the corresponding monomeric homing conjugate CNGRC-GG-d(KLAKLAK)2 (SEQ ID NO: 20), with a crude preparation of the CNGRC homing peptide monomers, with an RGD peptide preparation, with a preparation including KLAKLAK (SEQ ID NO: 5) antimicrobial peptides, and with a CNGR control preparation.

mitochondrial membranes = conditions: at a concentration of 10 μM; cited from earlier work

| Substance | cell death (Kaposi's sarcoma cells [1]) | reduction in mitochondrial function (Kaposi's sarcoma cells [2]) [%] | mitochondrial function (remaining) in treated KS cell culture (Kaposi's sarcoma cells [2]) | mitochondrial swelling (mitochondrial membranes) |
| --- | --- | --- | --- | --- |
| (CNGRC-GG-d(KLAKLAK)2)2 [HK-1] | ~50% | 63 | 37% |  |
| CNGRC-GG-d(KLAKLAK)2 | approximately 10% | 34 | over 65% |  |
| d(KLAKLAK)2 |  |  |  | marked mitochondrial swelling |
